Results: publication PMC11946580, “In Vitro Enzymatic and Computational Assessments of Pyrazole–Isatin and Pyrazole–Indole Conjugates as Anti-Diabetic, Anti-Arthritic, and Anti-Inflammatory Agents” (Pharmaceutics, 2025)

Experiments:
[1] = target: T1, COX-1 (Ovis aries, UniProt P05979); assay: COX-1 inhibition assay (Cayman kit); settings: for COX-1 Inhibition (%): mean ± SE, three replicates; on COX-1 Inhibition (%): test concentration or dose not given here
T1 sequence (P05979 25-600): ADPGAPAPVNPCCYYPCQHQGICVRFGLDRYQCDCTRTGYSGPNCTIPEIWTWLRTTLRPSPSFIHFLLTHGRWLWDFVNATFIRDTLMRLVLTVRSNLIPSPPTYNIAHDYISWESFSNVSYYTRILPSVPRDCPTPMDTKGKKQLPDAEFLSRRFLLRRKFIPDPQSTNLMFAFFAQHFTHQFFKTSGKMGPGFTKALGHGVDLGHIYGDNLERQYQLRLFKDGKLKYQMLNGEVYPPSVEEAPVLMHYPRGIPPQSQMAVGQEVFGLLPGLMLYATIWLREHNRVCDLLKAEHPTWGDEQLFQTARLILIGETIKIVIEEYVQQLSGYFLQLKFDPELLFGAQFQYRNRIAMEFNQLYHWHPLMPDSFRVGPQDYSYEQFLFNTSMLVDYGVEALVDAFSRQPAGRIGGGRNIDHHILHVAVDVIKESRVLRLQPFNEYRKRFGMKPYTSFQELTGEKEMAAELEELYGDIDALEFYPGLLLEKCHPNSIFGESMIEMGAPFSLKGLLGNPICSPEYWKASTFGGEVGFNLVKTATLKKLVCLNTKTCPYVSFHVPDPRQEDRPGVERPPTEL

[2] = target: bovine serum albumin (BSA) (Bos taurus, UniProt P02769); settings: mean ± SE, three replicates; further: test concentration or dose not given here
[3] = target: T2, 5-LOX (Homo sapiens, UniProt P09917); assay: 5-Lipoxygenase inhibition assay (kit); settings: for 5-LOX Inhibition (%): mean ± SE, three replicates; on 5-LOX Inhibition (%): test concentration or dose not given here
T2 sequence (P09917 1-674): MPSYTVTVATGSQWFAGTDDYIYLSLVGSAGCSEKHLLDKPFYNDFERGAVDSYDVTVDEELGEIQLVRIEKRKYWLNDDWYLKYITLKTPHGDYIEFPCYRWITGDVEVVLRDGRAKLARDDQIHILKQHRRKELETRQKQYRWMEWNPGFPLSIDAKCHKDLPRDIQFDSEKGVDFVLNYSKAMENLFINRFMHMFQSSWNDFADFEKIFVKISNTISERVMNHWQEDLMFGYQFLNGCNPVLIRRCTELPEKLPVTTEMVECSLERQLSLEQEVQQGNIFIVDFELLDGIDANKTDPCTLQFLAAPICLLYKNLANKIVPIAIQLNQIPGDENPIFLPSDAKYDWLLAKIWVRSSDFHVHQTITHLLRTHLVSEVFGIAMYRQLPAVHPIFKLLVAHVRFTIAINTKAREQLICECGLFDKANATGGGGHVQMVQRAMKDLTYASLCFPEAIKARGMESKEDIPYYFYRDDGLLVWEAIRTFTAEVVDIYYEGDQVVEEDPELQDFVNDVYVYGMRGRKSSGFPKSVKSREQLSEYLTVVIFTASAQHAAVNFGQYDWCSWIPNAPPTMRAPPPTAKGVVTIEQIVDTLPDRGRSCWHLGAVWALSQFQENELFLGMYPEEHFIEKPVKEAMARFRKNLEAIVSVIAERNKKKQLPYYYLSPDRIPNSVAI

[4] = target: T3, COX-2 (Homo sapiens, UniProt P35354); assay: COX-2 inhibition assay (Cayman kit); assay type: biochemical; settings: mean ± SE, three replicates
T3 construct: purchased Cayman 560131
T3 sequence (P35354 18-604): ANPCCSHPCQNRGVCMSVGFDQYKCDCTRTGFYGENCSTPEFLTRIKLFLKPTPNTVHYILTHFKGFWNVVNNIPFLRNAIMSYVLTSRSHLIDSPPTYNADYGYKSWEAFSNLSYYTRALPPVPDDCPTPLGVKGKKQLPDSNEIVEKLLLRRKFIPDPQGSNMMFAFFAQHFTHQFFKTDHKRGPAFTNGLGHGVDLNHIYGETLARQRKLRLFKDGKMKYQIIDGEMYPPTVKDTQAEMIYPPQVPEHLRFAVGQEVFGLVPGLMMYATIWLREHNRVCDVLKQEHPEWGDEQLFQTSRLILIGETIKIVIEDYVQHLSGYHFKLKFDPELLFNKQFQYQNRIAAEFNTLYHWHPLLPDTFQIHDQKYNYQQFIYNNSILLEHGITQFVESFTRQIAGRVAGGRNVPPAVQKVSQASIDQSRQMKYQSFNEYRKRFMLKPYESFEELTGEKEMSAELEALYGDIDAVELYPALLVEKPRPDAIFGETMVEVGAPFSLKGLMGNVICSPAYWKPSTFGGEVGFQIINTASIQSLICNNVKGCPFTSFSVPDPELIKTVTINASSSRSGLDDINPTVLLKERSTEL

[5] = target: α-glucosidase (Saccharomyces cerevisiae, UniProt P53341); assay: α-glucosidase inhibition assay (pNPG); assay type: biochemical; settings: mean ± SE, three replicates
Experimental: In vitro enzymatic assessments
The mixture was then left at
The absorbance was measured
the enzymatic activity. […] The IC50

[6] = target: α-amylase enzyme; design: method as in PMID 34600331; settings: cited from earlier work
[7] = test system: diabetic mice; design: method as in PMID 38029465; settings: cited from earlier work
[8] = test system: pancreatic cancer (PaCa-2) cells; design: method as in PMID 39193301; settings: cited from earlier work
[9] = target: cyclooxygenase-2 (COX-2) enzyme; design: method as in PMID 37985602; settings: cited from earlier work
[10] = target: cyclooxygenase-1 (COX-1) enzyme; design: method as in PMID 37985602; settings: cited from earlier work
[11] = target: α-glucosidase enzyme; design: method as in PMID 38225280; settings: cited from earlier work
[12] = target: COX-2 enzyme; design: method as in PMID 39143406; settings: cited from earlier work
[13] = design: method as in PMID 39143406; settings: cited from earlier work
[14] = design: method as in doi:10.1007/s11164-024-05318-1; settings: read-out: antioxidant activities IC50; cited from earlier work

bovine serum albumin (BSA), sequence (P02769 25-607): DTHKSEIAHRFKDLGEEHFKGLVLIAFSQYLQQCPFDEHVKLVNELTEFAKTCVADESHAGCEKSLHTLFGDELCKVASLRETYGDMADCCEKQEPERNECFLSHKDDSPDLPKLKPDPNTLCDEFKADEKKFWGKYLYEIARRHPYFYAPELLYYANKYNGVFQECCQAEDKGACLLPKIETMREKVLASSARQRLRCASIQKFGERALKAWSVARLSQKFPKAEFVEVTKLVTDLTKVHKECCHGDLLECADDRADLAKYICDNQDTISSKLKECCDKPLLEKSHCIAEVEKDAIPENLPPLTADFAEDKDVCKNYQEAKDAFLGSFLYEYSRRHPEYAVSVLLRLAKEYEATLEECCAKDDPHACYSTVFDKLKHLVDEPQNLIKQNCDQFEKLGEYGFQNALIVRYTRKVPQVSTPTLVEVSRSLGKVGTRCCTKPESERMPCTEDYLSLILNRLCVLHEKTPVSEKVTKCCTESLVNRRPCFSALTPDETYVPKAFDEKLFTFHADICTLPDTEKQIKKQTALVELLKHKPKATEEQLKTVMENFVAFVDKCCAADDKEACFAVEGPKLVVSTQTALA
α-glucosidase, sequence (P53341 whole entry): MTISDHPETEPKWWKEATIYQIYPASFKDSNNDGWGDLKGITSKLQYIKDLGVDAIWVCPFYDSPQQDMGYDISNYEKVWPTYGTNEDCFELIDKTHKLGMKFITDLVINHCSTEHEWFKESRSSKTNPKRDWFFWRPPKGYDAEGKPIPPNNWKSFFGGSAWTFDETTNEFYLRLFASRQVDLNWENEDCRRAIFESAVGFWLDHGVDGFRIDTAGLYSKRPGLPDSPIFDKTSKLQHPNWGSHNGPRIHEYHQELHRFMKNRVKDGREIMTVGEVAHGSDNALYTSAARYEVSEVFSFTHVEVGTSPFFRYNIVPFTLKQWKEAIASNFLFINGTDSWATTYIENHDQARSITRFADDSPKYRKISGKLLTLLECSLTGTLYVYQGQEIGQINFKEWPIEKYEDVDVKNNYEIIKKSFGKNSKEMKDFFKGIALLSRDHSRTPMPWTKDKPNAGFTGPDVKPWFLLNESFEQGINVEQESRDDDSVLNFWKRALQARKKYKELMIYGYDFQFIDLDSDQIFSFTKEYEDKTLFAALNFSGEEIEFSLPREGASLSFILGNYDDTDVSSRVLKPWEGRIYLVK

Structure (SMILES)	IC50 [1] [µM]	COX-1 Inhibition (%) [1] [%]	Protein Denaturation Inhibition (%) [2] [%]	IC50 [3] [µM]	5-LOX Inhibition (%) [3] [%]	COX-2 Inhibition (%) [4] [%]	IC50 [4] [µM]	further results
CCN1C(=O)C(=Nc2[nH]nc(Nc3ccccc3)c2C(=O)Nc2ccccc2)c2ccccc21 [12e]	47.8	17.62 ± 0.04	14.50 ± 0.03	48	9.72 ± 0.04	19.87 ± 0.04	43.3	
COc1ccc(Nc2n[nH]c(N=Cc3c[nH]c4ccccc34)c2C(=O)Nc2ccc(C)cc2)cc1 [14d]	22.9	35.63 ± 0.26	26.50 ± 0.17	26.7	27.73 ± 0.26	37.88 ± 0.26	22	
C[C@H]1O[C@H](O[C@H]2[C@H](O)[C@@H](O)[C@@H](O[C@H]3[C@H](O)[C@@H](O)C(O)O[C@@H]3CO)O[C@@H]2CO)[C@H](O)[C@@H](O)[C@@H]1N[C@H]1C=C(CO)[C@@H](O)[C@H](O)[C@H]1O (stereo partly shown) [Acarbose]								α-Glucosidase Inhibition (%) [5]: 62.33 ± 0.16%
CCC(=O)CN1C(=O)/C(=N/NC(=O)c2ccc(Br)cc2)c2ccccc21 [compound 4]								α-amylase IC50 [6]: 19.6 µg/mL
COc1ccc(Nc2n[nH]c(N=C3C(=O)N(C)c4ccccc43)c2C(=O)Nc2ccccc2)cc1 [12c]	38.8	20.98 ± 0.04	16.73 ± 0.03	40.4	13.08 ± 0.04	23.23 ± 0.04	35.8	
O=C(Nc1ccccc1)c1c(Nc2ccccc2)n[nH]c1N=Cc1c[nH]c2ccccc12 [14a]	17.1	52.79 ± 0.26	37.94 ± 0.17	21.9	44.89 ± 0.26	55.04 ± 0.26	16.7	
Cc1ccc(NC(=O)c2c(Nc3ccccc3)n[nH]c2N=Cc2c[nH]c3ccccc23)cc1 [14b]	12.5	69.83 ± 0.26	49.30 ± 0.17	17.3	61.93 ± 0.26	72.08 ± 0.26	12.4	
Cc1ccc(/C=C2\SC(=O)N(CC(=O)NCCc3c[nH]c4ccccc34)C2=O)cc1 [compound 7]								glucose levels in diabetic mice [7]: suppressed glucose levels in diabetic mice
CC(c1cc2ccccc2s1)N(O)C(N)=O (stereo not shown) [Zileuton, reference compound]					72.61 ± 0.07			
COc1ccc(Nc2n[nH]c(N=Cc3c[nH]c4ccccc34)c2C(=O)Nc2ccccc2)cc1 [14c]	24	35.07 ± 0.26	26.13 ± 0.17	27.8	27.17 ± 0.26	37.32 ± 0.26	23	
CCc1nn(-c2ccc([N+](=O)[O-])cc2)c(C)c1C(=O)/C=C/c1ccccc1 [compound 3]								PaCa-2 cells IC50 [8]: 13.0 µg/mL; cell cycle effect in treated PaCa-2 cells [8]: induces cell cycle arrest at the S and G2/M phases
O=C(Nc1cc(-c2ccccc2)nn1-c1ccccc1)c1ccc(/C=C/C(=O)c2ccc(Cl)s2)cc1 [compound 2]								IC50 [9]: 1.76 µM; IC50 [10]: 10.2 µM
CCN1C(=O)C(=Nc2[nH]nc(Nc3ccc(OC)cc3)c2C(=O)Nc2ccc(C)cc2)c2ccccc21 [12h]	37.3	20.56 ± 0.04	16.45 ± 0.03	38.7	12.66 ± 0.04	22.81 ± 0.04	34.3	
Cc1cc(-c2nnc(S)n2N)n[nH]1 [compound 1]								IC50 [11]: 95.85 ± 0.92 µM
CCN1C(=O)C(=Nc2[nH]nc(Nc3ccc(OC)cc3)c2C(=O)Nc2ccccc2)c2ccccc21 [12g]	37.4	21.15 ± 0.04	16.85 ± 0.03	38.9	13.25 ± 0.04	23.40 ± 0.04	34.4	
COc1ccc(Nc2n[nH]c(N=C3C(=O)N(C)c4ccccc43)c2C(=O)Nc2ccc(C)cc2)cc1 [12d]	38	20.80 ± 0.04	16.62 ± 0.03	39.4	12.90 ± 0.04	23.05 ± 0.04	35	
CN1C(=O)C(=Nc2[nH]nc(Nc3ccccc3)c2C(=O)Nc2ccccc2)c2ccccc21 [12a]	49.8	17.47 ± 0.04	14.40 ± 0.03	49.9	9.57 ± 0.04	19.72 ± 0.04	45	
Cc1ccc(NS(=O)(=O)c2ccc(-c3csc(N/N=C4\C(=O)Nc5ccc(Cl)cc54)n3)cc2)cc1 [compound 6]								IC50 [12]: 8.26 µM; selectivity against COX-2 (SI) [12]: 2.65; edema inhibition (EI) [13]: 38.50%
COc1cc(C=NNC(=S)NN=C2C(=O)Nc3ccc(I)cc32)ccc1O [compound 5]								IC50 [14]: 9.76 ± 0.03 µM
CCN1C(=O)/C(=N\c2[nH]nc(Nc3ccccc3)c2C(=O)Nc2ccc(C)cc2)c2ccccc21 [12f]	43.2	18.91 ± 0.04	15.36 ± 0.03	44	11.01 ± 0.04	21.16 ± 0.04	39.4	
Cc1ccc(NC(=O)c2c(Nc3ccccc3)n[nH]c2N=C2C(=O)N(C)c3ccccc32)cc1 [12b]	44.9	18.75 ± 0.04	15.25 ± 0.03	45.7	10.85 ± 0.04	21.00 ± 0.04	40.9	
